Reference: US6852316B2, “Cancer treatment” (Queen Mary & Westfield College, priority 1998, dated 2005)
Entries after “also recorded” stand apart in the source; their conditions may differ.

Key:
Type in all cases: cell-based
[1] = test system: β1 integrin; assay: 125I labelling and immunoprecipitation of β1 integrin, SDS-PAGE autoradiography; settings: MCF-7 cells, A-II 10^−5 M for 24 hours, compared to control, non-reducing conditions
Procedure: Immunoprecipitation is a technique for the detection and quantification of target protein. It comprises the five steps of radiolabelling of the cell-membrane proteins, cell lysis, formation of the specific antibody-antigen complexes, extraction of these complexes and analysis of the radiolabelled target proteins contained within the immunoprecipitation. All experiments were performed in triplicate.
For immunoprecipitation experiments, MCF-7 cells were cultured in 5% FBS-supplemented MEM. When sub-confluent, the medium was removed and the cells washed with phosphate buffered saline (PBS) (0.15 M sodium chloride, 20 mM sodium monophosphate; pH 7.5). The medium was then replaced with serum-free MEM and treated with angiotensin-II (A-II) at a concentration of 10^−5 M for 24 hours. Control cells were cultured in serum-free medium only. On this occasion the cells were harvested not by trypsinisation, which may impair the immunoprecipitation process, but with a cell scraper. They were then gently passed repeatedly through a narrow pipette, to break down cell clusters, and centrifuged at 900 rpm per ten minutes.
The cell pellets as above were taken up in PBS and counted with the haemocytometer. Trypan blue exclusion was employed so that 1-2×10^6 viable cells were taken up in each 1 ml aliquot. […]

[2] = test system: β1 integrin; assay: Immunocytochemistry for β1 integrin expression in MCF-7 cancer cell line; settings: MCF-7 cells treated with A-II at 10^−5 M, versus control
Procedure: Immunocytochemical straining of both receptors was based on the standard streptavidinbiotin peroxidase method. For the optimal working concentration of both antibodies serial dilutions were performed. The AT1R antibody 6313/G2 in the range 1:1 to 1:500 and for anti-β1 integrin between 1:10 and 1:500.
For integrin B1 receptor straining both with and without A-II pre-treatment, harvested cells were plated onto sterile microscope slides within slide culture wells (Heraeus Instruments GmbH, Osterode am Harz, Germany) and incubated with fresh BCM. When sub-confluent the medium was replaced with serum-free BCM to which was added Angiotensin-II (A-II), or not in the case of controls which were subjected to otherwise identical preparation and straining. Angiotensin-II (A-II) was added in the concentration range 10^−5M to 10^−9M and incubated for 24 hours. The medium was then removed, the slides rinsed with PBS, air dried and stored frozen as above.
The slides, prepared as above, were removed from frozen storage and placed directly into 100% acetone (British Drug Houses) at −10° C. for 10 minutes. They were then air-dried for 10 minutes and rehydrated in 0.05 M Tris-buffered saline (TBS)(0.05 M sodium chloride, 0.05 M Trizma base, 36 mM hydrochloric acid, pH 7.6) twice for 3 minutes each. […]

[3] = test system: breast cancer cells; assay: Breast cancer cell growth in culture, light microscopy
[4] = test system: breast cancer cells; assay: Invasion chamber assay, IGF-I stimulated breast cancer cell invasion
Procedure: The effect of angiotensin-II (A-II) in inhibiting growth factor-induced stimulated cancer cell invasiveness was studied as a model system and the results are shown in FIG. 3. The study was carried out using an invasion chamber in which two compartments are separated by a perforated membrane coated in matrix protein. A chemoattractant, IGF-I, was added to the medium on one side of the chamber, and the breast cancer cells to the other. Invasiveness was measured by counting the cells that migrated from one chamber to the other.

Asp-Arg-Val-Tyr-Ile-His-Pro-Phe (DRVYIHPF; Sequence Source Uncertain) [angiotensin-II]
β1 integrin expression (density of protein band on gel autoradiograph) [1]: relative increase in density; also recorded: increased expression
β1 integrin staining (expression of β1 integrin protein) [2]: increase in staining
stimulation of cell growth ([3]; breast cancer cells in culture): did not stimulate cell growth
size of cell clusters in culture ([3]; grown in presence of angiotensin-II versus control cultures, light microscopy): larger clusters of cells
reduction in mean invasion ([4]; A-II pre-treatment versus control, IGF-I chemoattractant): tenfold reduction
mean invasion ([4]; cells treated with A-II prior to invasion assay, chemoattractant IGF-I, control 1.58%, p=0.0011): 0.15%
